Numbers after ± are expanded uncertainties.
Settings: 343.15 K, Liquid, Vibrating tube method

CCCCCCC(=O)OCC(COC(=O)CCCCCC)(COC(=O)CCCCCC)COC(=O)CCCCCC [pentaerythritol tetraheptanoate]
Settings	mass density [kg/m3]
198.3 kPa	940.8 ± 1.1
199.4 kPa	940.6 ± 1.1
200.6 kPa	940.7 ± 1.1
201.5 kPa	940.8 ± 1.1
202.5 kPa	940.8 ± 1.1
203.4 kPa	940.7 ± 1.1
204.1 kPa	940.7 ± 1.1
205.3 kPa	940.7 ± 1.1
206 kPa	940.7 ± 1.1
206.9 kPa	940.9 ± 1.1
207.7 kPa	940.8 ± 1.1
208.6 kPa	940.7 ± 1.1
210 kPa	940.7 ± 1.1
211 kPa	940.6 ± 1.1
211.7 kPa	940.7 ± 1.1
212.8 kPa	940.9 ± 1.1
213.6 kPa	940.7 ± 1.1
214.8 kPa	940.7 ± 1.1
215.9 kPa	940.7 ± 1.1
217.1 kPa	940.8 ± 1.1
218 kPa	940.8 ± 1.1
219 kPa	940.7 ± 1.1
220.2 kPa	940.8 ± 1.1
222.7 kPa	940.7 ± 1.1
224.1 kPa	940.8 ± 1.1
225.1 kPa	940.7 ± 1.1
226.1 kPa	940.7 ± 1.1
227 kPa	940.8 ± 1.1
228.6 kPa	940.8 ± 1.1
229.8 kPa	940.8 ± 1.1
231 kPa	940.7 ± 1.1
232.2 kPa	940.7 ± 1.1
233.4 kPa	940.6 ± 1.1
234.5 kPa	940.7 ± 1.1
236.2 kPa	940.7 ± 1.1
237.9 kPa	940.8 ± 1.1
239.3 kPa	940.7 ± 1.1
241.1 kPa	940.7 ± 1.1
242 kPa	940.7 ± 1.1
243.9 kPa	940.6 ± 1.1
244.9 kPa	940.7 ± 1.1
246.3 kPa	940.8 ± 1.1
248 kPa	940.6 ± 1.1
250 kPa	940.7 ± 1.1
251 kPa	940.7 ± 1.1
252.9 kPa	940.8 ± 1.1
254.6 kPa	940.7 ± 1.1
255.8 kPa	940.8 ± 1.1
257.9 kPa	940.7 ± 1.1
259.5 kPa	940.8 ± 1.1
260.5 kPa	940.8 ± 1.1
262.3 kPa	940.8 ± 1.1
263.7 kPa	940.7 ± 1.1
265.9 kPa	940.8 ± 1.1
268 kPa	940.8 ± 1.1
269.6 kPa	940.6 ± 1.1
271.8 kPa	940.8 ± 1.1
273.9 kPa	940.8 ± 1.1
276.2 kPa	940.7 ± 1.1
277.7 kPa	940.7 ± 1.1
279.5 kPa	940.8 ± 1.1
281.6 kPa	940.7 ± 1.1
284.2 kPa	940.8 ± 1.1
287.1 kPa	940.8 ± 1.1
288.7 kPa	940.8 ± 1.1
291.3 kPa	940.8 ± 1.1
293.5 kPa	940.9 ± 1.1
295.8 kPa	940.7 ± 1.1
297.9 kPa	940.8 ± 1.1
302.9 kPa	940.9 ± 1.1
305.2 kPa	940.8 ± 1.1
308.3 kPa	940.8 ± 1.1
310.8 kPa	940.8 ± 1.1
314.1 kPa	940.9 ± 1.1
316.5 kPa	940.9 ± 1.1
319.1 kPa	940.8 ± 1.1
321.4 kPa	940.8 ± 1.1
324.7 kPa	940.8 ± 1.1
327.3 kPa	940.7 ± 1.1
330.2 kPa	940.7 ± 1.1
333.5 kPa	940.9 ± 1.1
336 kPa	940.7 ± 1.1
340 kPa	940.7 ± 1.1
343.3 kPa	940.9 ± 1.1
346.2 kPa	940.8 ± 1.1
349.4 kPa	940.8 ± 1.1
353.2 kPa	941 ± 1.1
356.5 kPa	940.7 ± 1.1
359.8 kPa	940.9 ± 1.1
364.3 kPa	940.9 ± 1.1
367.4 kPa	940.8 ± 1.1
371.8 kPa	940.8 ± 1.1
375.3 kPa	940.8 ± 1.1
378.9 kPa	940.8 ± 1.1
382.9 kPa	941 ± 1.1
387.8 kPa	940.9 ± 1.1
391.6 kPa	940.9 ± 1.1
395.9 kPa	940.9 ± 1.1
400.5 kPa	940.9 ± 1.1
405 kPa	940.9 ± 1.1
410.2 kPa	941 ± 1.1
414.7 kPa	941 ± 1.1
419.2 kPa	940.9 ± 1.1
423.8 kPa	940.9 ± 1.1
429.5 kPa	940.8 ± 1.1
434.5 kPa	940.9 ± 1.1
440.6 kPa	940.9 ± 1.1
445.7 kPa	940.9 ± 1.1
451.2 kPa	941 ± 1.1
457.5 kPa	941 ± 1.1
463.2 kPa	940.9 ± 1.1
468.9 kPa	940.8 ± 1.1

From the NIST ThermoML archive (doi:10.1021/je060271a)
